Results as given in article PMC5054527, “Mechanism of high affinity inhibition of the human urate transporter URAT1” (Scientific Reports, 2016).
Substitutions are numbered along the chain they refer to. Like-named read-outs stand apart in the source and are kept apart here.

How the values were obtained:
[1] = molecular target: T1, r-L29M rURAT1 point mutant (Rattus norvegicus, UniProt Q3ZAV1, L29M); assay: URAT1 uric acid transport activity assay; assay type: cell-based
T1 sequence (Q3ZAV1 1-553 L29M): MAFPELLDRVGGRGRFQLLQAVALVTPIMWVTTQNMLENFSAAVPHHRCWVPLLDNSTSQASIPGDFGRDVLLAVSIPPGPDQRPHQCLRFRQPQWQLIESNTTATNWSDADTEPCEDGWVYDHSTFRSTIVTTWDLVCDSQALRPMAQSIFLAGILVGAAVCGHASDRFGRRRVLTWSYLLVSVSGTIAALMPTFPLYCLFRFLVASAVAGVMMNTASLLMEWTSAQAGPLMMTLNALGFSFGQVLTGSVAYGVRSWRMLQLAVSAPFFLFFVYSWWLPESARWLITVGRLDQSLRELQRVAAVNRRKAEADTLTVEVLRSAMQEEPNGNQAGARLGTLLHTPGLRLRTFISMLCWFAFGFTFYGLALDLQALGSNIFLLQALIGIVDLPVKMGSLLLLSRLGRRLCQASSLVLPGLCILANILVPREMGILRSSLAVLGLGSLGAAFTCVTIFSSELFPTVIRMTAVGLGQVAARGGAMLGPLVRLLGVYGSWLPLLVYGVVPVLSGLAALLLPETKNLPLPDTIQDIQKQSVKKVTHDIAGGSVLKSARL
How it was run: (§1)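 Rat URAT1 point or double mutants in pCMV6/neo were transiently transfected into cells and assayed the next day. Compounds were preincubated for 5 minutes, then 100 μM 14C-uric acid uptake was measured over 10 minutes in triplicate. IC50 came from four-parameter variable-slope nonlinear regression.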

[2] = molecular target: T2, r-N35S/M481I rURAT1 double point mutant (Rattus norvegicus, UniProt Q3ZAV1, M481I/N35S); assay: URAT1 uric acid transport activity assay; assay type: cell-based
T2 construct: hURAT1 and rURAT1 are 553 amino acid proteins with 12 transmembrane segments; expressed in transfected cells; host or cells: HEK-293T
T2 sequence (Q3ZAV1 1-553 N35S/M481I): T1 sequence (Q3ZAV1 1-553 L29M) with M29L, N35S, M481I
How it was run: as §1

human URAT1 = molecular target: T3, human URAT1 (Homo sapiens, UniProt Q96S37); assay: ^3H-RDEA3170 URAT1 membrane binding assay; details: human URAT1 membranes; 10 nM ^3H-RDEA3170
T3 construct: hURAT1 and rURAT1 are 553 amino acid proteins with 12 transmembrane segments; expressed in transfected cells; host or cells: URAT1-transfected cells (HEK-293T per the transfection section)
T3 sequence (Q96S37 1-553): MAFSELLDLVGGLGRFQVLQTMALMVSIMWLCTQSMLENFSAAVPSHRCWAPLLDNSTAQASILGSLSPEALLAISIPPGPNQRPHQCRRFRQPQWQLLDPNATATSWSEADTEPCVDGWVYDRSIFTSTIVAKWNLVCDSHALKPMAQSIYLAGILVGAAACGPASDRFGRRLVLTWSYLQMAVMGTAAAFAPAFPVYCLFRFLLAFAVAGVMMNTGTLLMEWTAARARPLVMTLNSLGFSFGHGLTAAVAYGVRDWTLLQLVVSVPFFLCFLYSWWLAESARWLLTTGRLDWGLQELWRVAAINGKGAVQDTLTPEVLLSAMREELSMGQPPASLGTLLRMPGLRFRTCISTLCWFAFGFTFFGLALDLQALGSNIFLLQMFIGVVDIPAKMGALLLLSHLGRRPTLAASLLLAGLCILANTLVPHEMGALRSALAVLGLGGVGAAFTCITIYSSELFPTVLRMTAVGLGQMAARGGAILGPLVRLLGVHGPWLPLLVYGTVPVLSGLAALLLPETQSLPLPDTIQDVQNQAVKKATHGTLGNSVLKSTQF
Description: Membranes were prepared from URAT1-transfected cells. […] Cells were lysed with 100 strokes in a dounce homogenizer using a tight-fitting “B” stem. Lysates were transferred to 1.5 ml Eppendorf tubes and centrifuged at 250 rcf for 5 minutes at 2 °C, and supernatants were transferred to fresh tubes and centrifuged again at 18,000 rcf for 20 minutes at 2 °C. The pellets (membrane fractions) were resuspended in 1 ml of ice-cold binding buffer containing protease inhibitors and frozen at −80 °C. Protein was measured using the Bio-Rad protein assay dye reagent concentrate.
To initiate binding, membranes at 2.5 μg total protein were incubated with ^3H-RDEA3170 for 30 minutes at room temperature. […] The plates were then subjected to scintillation counting. All samples were assayed in triplicate.

hURAT1 = details: cited from earlier work

Which IC50 ([1]; r-L29M, HEPES pH 7.3, 100 μM 14C-uric acid, read-out: IC50 (uric acid transport)) does the source give for `O=C1C(CC[S+]([O-])c2ccccc2)C(=O)N(c2ccccc2)N1c1ccccc1` (centres unmarked) [sulfinpyrazone] here?
The IC50 was 495 ± 152 µM.

What about the IC50 ([2]; r-N35S/M481I, HEPES pH 7.3, 100 μM 14C-uric acid, read-out: IC50 (uric acid transport)) of the same compound?
Its IC50 is 176 ± 44 µM.

What about the “displacement of ^3H-RDEA3170 binding to hURAT1” value (human URAT1) of the same compound?
The value was “displace binding of the probe”.

For `O=c1[nH]c(=O)c2[nH]c(=O)[nH]c2[nH]1` [uric acid], which Km (hURAT1; read-out: Km for the substrate urate) is on record?
Its Km is 371 µM.

With `O=C(O)CSc1nnc(Br)n1-c1ccc(C2CC2)c2ccccc12` [lesinurad, 2-((5-bromo-4-(4-cyclopropylnaphthalen-1-yl)-4H-1,2,4-triazol-3-yl)thio)acetic acid] as the compound, how does the IC50 ([1]; r-L29M, MES pH 5.5, 100 μM 14C-uric acid, read-out: IC50 (uric acid transport)) read?
Its IC50 is 77 ± 6.6 µM.

And the IC50 ([2]; r-N35S/M481I, MES pH 5.5, 100 μM 14C-uric acid, read-out: IC50 (uric acid transport))?
The IC50 was 29 ± 1.2 µM.

What about the “displacement of ^3H-RDEA3170 binding to hURAT1” value (human URAT1) of the same compound?
Its value is “displace binding of the probe”.

What does the source list for `CCc1oc2ccccc2c1C(=O)c1cc(Br)c(O)c(Br)c1` [benzbromarone]?
IC50 [1]: 21 ± 3.3 µM; IC50 [2]: 9 ± 1.5 µM; displacement of ^3H-RDEA3170 binding to hURAT1 (human URAT1): displace binding of the probe; IC50 (hURAT1): […]
